{"source": "ChEMBL document CHEMBL5137128", "about": "“Daphnoretin Arrests the Cell Cycle and Induces Apoptosis in Human Breast Cancer Cells” (J Nat Prod, 2022)", "key": {"MDA-MB-231 [1]": {"tested_on": "MDA-MB-231", "assay": "Induction of apoptosis in human MDA-MB-231 cells assessed as apoptotic bodies at 0.5 to 2 uM incubated for 24 hrs by Hoechst 33258 staining based light microscopic analysis", "assay_type": "functional, cell-based", "details": "dose 0.5-2 µM"}, "MDA-MB-231 [2]": {"tested_on": "MDA-MB-231", "assay": "Induction of apoptosis in human MDA-MB-231 cells assessed as decrease in Bcl-2 level at 0.5 to 2 uM measured upto 24 hrs by Western blot analysis", "assay_type": "functional, cell-based", "details": "dose 0.5-2 µM"}, "MCF7 [3]": {"tested_on": "MCF7", "assay": "Induction of apoptosis in human MCF7 cells assessed as increase in Bax level at 1 to 4 uM measured upto 24 hrs by Western blot analysis", "assay_type": "functional, cell-based", "details": "dose 1-4 µM"}, "MDA-MB-231 [4]": {"tested_on": "MDA-MB-231", "assay": "Antiproliferative activity human MDA-MB-231 cells assessed as inhibition of cell proliferation incubated for 24 hrs by MTT assay", "assay_type": "functional, cell-based", "details": "MDA-MB-231, 24 h"}, "MCF7 [5]": {"tested_on": "MCF7", "assay": "Induction of cell cycle arrest in human MCF7 cells assessed as downregulation of CDK2 expression at 1 to 4 uM measured upto 24 hrs by Western blot analysis relative to control", "assay_type": "functional, cell-based", "details": "dose 1-4 µM"}, "MDA-MB-231 [6]": {"tested_on": "MDA-MB-231", "assay": "Induction of apoptosis in human MDA-MB-231 cells assessed as chromatin condensation at 0.5 to 2 uM incubated for 24 hrs by Hoechst 33258 staining based light microscopic analysis", "assay_type": "functional, cell-based", "details": "dose 0.5-2 µM"}, "MCF7 [7]": {"tested_on": "MCF7", "assay": "Induction of cell cycle arrest in human MCF7 cells assessed as G2/M phase cells at 4 uM incubated for 24 hrs by propidium iodide staining based flow cytometry analysis (reference value: 0.86 %)", "assay_type": "functional"}, "MCF7 [8]": {"tested_on": "MCF7", "assay": "Antiproliferative activity human MCF7 cells assessed as inhibition of cell proliferation incubated for 24 hrs by MTT assay", "assay_type": "functional, cell-based", "details": "MCF7, 24 h"}, "MDA-MB-231 [9]": {"tested_on": "MDA-MB-231", "assay": "Inhibition of AKT phosphorylation in human MDA-MB-231 cells at 0.5 to 2 uM by Western blot analysis", "assay_type": "cell-based", "details": "dose 0.5-2 µM"}, "MDA-MB-231 [10]": {"tested_on": "MDA-MB-231", "assay": "Induction of apoptosis in human MDA-MB-231 cells assessed as increase in cleaved caspase-9 level at 0.5 to 2 uM measured upto 24 hrs by Western blot analysis", "assay_type": "functional, cell-based", "details": "dose 0.5-2 µM"}, "MCF7 [11]": {"tested_on": "MCF7", "assay": "Induction of apoptosis in human MCF7 cells assessed as increase in total apoptotic rate at 1 to 4 uM incubated for 24 hrs by propidium iodide staining based flow cytometric analysis", "assay_type": "functional, cell-based", "details": "dose 1-4 µM"}, "MDA-MB-231 [12]": {"tested_on": "MDA-MB-231", "assay": "Induction of morphological changes in human MDA-MB-231 cells assessed as deformed cells at 0.5 to 2 uM by electron microscopic analysis", "assay_type": "functional, cell-based", "details": "dose 0.5-2 µM"}, "MDA-MB-231 [13]": {"tested_on": "MDA-MB-231", "assay": "Induction of cell cycle arrest in human MDA-MB-231 cells assessed as accumulation of S phase cells at 2 uM incubated for 24 hrs by propidium iodide staining based flow cytometry analysis (reference value: 28.71 %)", "assay_type": "functional"}, "MDA-MB-231 [14]": {"tested_on": "MDA-MB-231", "assay": "Induction of cell cycle arrest in human MDA-MB-231 cells assessed as G0-G1 phase cells at 0.5 uM incubated for 24 hrs by propidium iodide staining based flow cytometry analysis (reference value: 66.84 %)", "assay_type": "functional"}, "MDA-MB-231 [15]": {"tested_on": "MDA-MB-231", "assay": "Induction of morphological changes in human MDA-MB-231 cells assessed as cell shrinkage at 0.5 to 2 uM by electron microscopic analysis", "assay_type": "functional, cell-based", "details": "dose 0.5-2 µM"}, "MDA-MB-231 [16]": {"tested_on": "MDA-MB-231", "assay": "Induction of cell cycle arrest in human MDA-MB-231 cells assessed as downregulation of cyclin E expression at 0.5 to 2 uM measured upto 24 hrs by Western blot analysis relative to control", "assay_type": "functional, cell-based", "details": "dose 0.5-2 µM"}, "MCF7 [17]": {"tested_on": "MCF7", "assay": "Induction of apoptosis in human MCF7 cells assessed as chromatin condensation at 1 to 4 uM incubated for 24 hrs by Hoechst 33258 staining based light microscopic analysis", "assay_type": "functional, cell-based", "details": "dose 1-4 µM"}, "MCF7 [18]": {"tested_on": "MCF7", "assay": "Inhibition of PI3K phosphorylation in human MCF7 cells at 1 to 4 uM by Western blot analysis", "assay_type": "cell-based", "details": "dose 1-4 µM"}, "MCF7 [19]": {"tested_on": "MCF7", "assay": "Induction of apoptosis in human MCF7 cells assessed as increase in cleaved caspase-9 level at 1 to 4 uM measured upto 24 hrs by Western blot analysis", "assay_type": "functional, cell-based", "details": "dose 1-4 µM"}, "MCF7 [20]": {"tested_on": "MCF7", "assay": "Induction of cell cycle arrest in human MCF7 cells assessed as accumulation of S phase cells at 4 uM incubated for 24 hrs by propidium iodide staining based flow cytometry analysis (reference value: 27.84 %)", "assay_type": "functional"}, "MDA-MB-231 [21]": {"tested_on": "MDA-MB-231", "assay": "Induction of cell cycle arrest in human MDA-MB-231 cells assessed as G2/M phase cells at 2 uM incubated for 24 hrs by propidium iodide staining based flow cytometry analysis (reference value: 4.44 %)", "assay_type": "functional"}, "MDA-MB-231 [22]": {"tested_on": "MDA-MB-231", "assay": "Induction of cell cycle arrest in human MDA-MB-231 cells assessed as downregulation of CDK2 expression at 0.5 to 2 uM measured upto 24 hrs by Western blot analysis relative to control", "assay_type": "functional, cell-based", "details": "dose 0.5-2 µM"}, "MCF7 [23]": {"tested_on": "MCF7", "assay": "Induction of apoptosis in human MCF7 cells assessed as apoptotic bodies at 1 to 4 uM incubated for 24 hrs by Hoechst 33258 staining based light microscopic analysis", "assay_type": "functional, cell-based", "details": "dose 1-4 µM"}, "MDA-MB-231 [24]": {"tested_on": "MDA-MB-231", "assay": "Induction of cell cycle arrest in human MDA-MB-231 cells assessed as accumulation of S phase cells at 0.5 uM incubated for 24 hrs by propidium iodide staining based flow cytometry analysis (reference value: 28.71 %)", "assay_type": "functional"}, "MDA-MB-231 [25]": {"tested_on": "MDA-MB-231", "assay": "Induction of apoptosis in human MDA-MB-231 cells assessed as increase in cleaved caspase-3 level at 0.5 to 2 uM measured upto 24 hrs by Western blot analysis", "assay_type": "functional, cell-based", "details": "dose 0.5-2 µM"}, "MCF7 [26]": {"tested_on": "MCF7", "assay": "Induction of cell cycle arrest in human MCF7 cells assessed as G0-G1 phase cells at 2 uM incubated for 24 hrs by propidium iodide staining based flow cytometry analysis (reference value: 71.30 %)", "assay_type": "functional"}}, "note": "The source made the active and inactive calls. The rule behind the calls is not given here."}
{"molecule": "COc1cc2cc(Oc3ccc4ccc(=O)oc4c3)c(=O)oc2cc1O", "note": "[DAPHNORETIN]", "values": [{"measurement": "Activity", "setting": "MDA-MB-231 [1]", "result": "Active"}, {"measurement": "Activity", "setting": "MDA-MB-231 [2]", "result": "Active"}, {"measurement": "Activity", "setting": "MCF7 [3]", "result": "Active"}, {"measurement": "IC50", "setting": "MDA-MB-231 [4]", "result": 1000, "unit": "nM"}, {"measurement": "Activity", "setting": "MCF7 [5]", "result": "Active"}, {"measurement": "Activity", "setting": "MDA-MB-231 [6]", "result": "Active"}, {"measurement": "Activity", "setting": "MCF7 [7]", "result": 2.2, "unit": "%"}, {"measurement": "IC50", "setting": "MCF7 [8]", "result": 2000, "unit": "nM"}, {"measurement": "inhibition", "setting": "MDA-MB-231 [9]", "result": "Active"}, {"measurement": "Activity", "setting": "MDA-MB-231 [10]", "result": "Active"}, {"measurement": "Activity", "setting": "MCF7 [11]", "result": "Active"}, {"measurement": "Activity", "setting": "MDA-MB-231 [12]", "result": "Active"}, {"measurement": "Activity", "setting": "MDA-MB-231 [13]", "result": 47.72, "unit": "%"}, {"measurement": "Activity", "setting": "MDA-MB-231 [14]", "result": 53.37, "unit": "%"}, {"measurement": "Activity", "setting": "MDA-MB-231 [15]", "result": "Active"}, {"measurement": "Activity", "setting": "MDA-MB-231 [16]", "result": "Active"}, {"measurement": "Activity", "setting": "MCF7 [17]", "result": "Active"}, {"measurement": "inhibition", "setting": "MCF7 [18]", "result": "Active"}, {"measurement": "Activity", "setting": "MCF7 [19]", "result": "Active"}, {"measurement": "Activity", "setting": "MCF7 [20]", "result": 46.53, "unit": "%"}, {"measurement": "Activity", "setting": "MDA-MB-231 [21]", "result": 15.29, "unit": "%"}, {"measurement": "Activity", "setting": "MDA-MB-231 [22]", "result": "Active"}, {"measurement": "Activity", "setting": "MCF7 [23]", "result": "Active"}, {"measurement": "Activity", "setting": "MDA-MB-231 [24]", "result": 37.3, "unit": "%"}, {"measurement": "Activity", "setting": "MDA-MB-231 [25]", "result": "Active"}, {"measurement": "Activity", "setting": "MCF7 [26]", "result": 50.95, "unit": "%"}]}
